# According to ChEMBL document CHEMBL3244068 (J Med Chem, 1978):
# Tested on: L1210
# Assay: Antitumor activity against mouse L1210 cells assessed as dose required to produce T/C of 125% administered for 9 days
# Type: functional
# Conditions: not given
row,SMILES,log(1/C)
1,Cc1ccc(S(=O)(=O)OCCN(CCOS(=O)(=O)c2ccc(C)cc2)c2ccc(F)cc2)cc1,4.2
2,CC(=O)Nc1cccc(N(CCOS(C)(=O)=O)CCOS(C)(=O)=O)c1,5.67

# Tested on: L1210
# Assay: Antitumor activity against mouse L1210 cells assessed as dose required to produce T/C of 125% administered for 8 days
# Type: functional
# Conditions: not given
row,SMILES,log(1/C)
1,CS(=O)(=O)OCCN(CCOS(C)(=O)=O)c1ccc(N=O)cc1,6.13

# Tested on: not listed separately
# Assay: Stability of the compound in acetone assessed as hydrolysis at 66 degC after 30 mins
# Type: physicochemical
# Conditions: 0.5 h
SMILES,log K,log(%)
ClCCN(CCCl)c1ccc(/C=C/c2ccccc2)cc1,-3.95,1.26
CCOC(=O)CCCc1ccc(N(CCCl)CCCl)cc1,-3.84,1.36
O=C(O)CCCc1ccc(N(CCCl)CCCl)cc1 [CHLORAMBUCIL],-3.65,
ClCCN(CCCl)c1ccc2ccccc2c1 [CHLORNAPHAZINE],,1.18

# Tested on: not listed separately
# Assay: Ratio of LD50 for rat allografted with rat Walker 256 cells to ED90 for rat Walker 256 cells allografted in rat
# Conditions: not given
row,SMILES,Ratio
1,O=C(Oc1ccc(N(CCBr)CCBr)cc1)c1ccccc1,3.5
2,Cc1ccccc1C(=O)Oc1ccc(N(CCBr)CCBr)cc1,3.5
3,Cc1cccc(C)c1C(=O)Oc1ccc(N(CCBr)CCBr)cc1,3.5
4,CCc1ccccc1C(=O)Oc1ccc(N(CCBr)CCBr)cc1,3.5
5,CC(C)c1ccccc1C(=O)Oc1ccc(N(CCBr)CCBr)cc1,3.5
6,Cc1cccc(C(=O)Oc2ccc(N(CCBr)CCBr)cc2)c1,3.5
7,Cc1ccc(C(=O)Oc2ccc(N(CCBr)CCBr)cc2)cc1,3.5
8,O=C(Oc1ccc(N(CCBr)CCBr)cc1)c1cccc(Cl)c1,3.5
9,O=C(Oc1ccc(N(CCBr)CCBr)cc1)c1ccc(Cl)cc1,3.5
10,COc1ccc(C(=O)Oc2ccc(N(CCBr)CCBr)cc2)cc1,3.5
11,O=C(Oc1ccc(N(CCBr)CCBr)cc1)c1cccc(C(F)(F)F)c1,3.5
12,O=C(Oc1ccc(N(CCBr)CCBr)cc1)c1cccc([N+](=O)[O-])c1,3.5
13,O=C(Oc1ccc(N(CCBr)CCBr)cc1)c1ccc([N+](=O)[O-])cc1,3.5
14,O=C(Oc1ccc(N(CCCl)CCCl)cc1)c1ccccc1,3.5
15,Cc1ccccc1C(=O)Oc1ccc(N(CCCl)CCCl)cc1,3.5
16,Cc1ccc(C(=O)Oc2ccc(N(CCCl)CCCl)cc2)cc1,3.5
17,Cc1cccc(C)c1C(=O)Oc1ccc(N(CCCl)CCCl)cc1,3.5
18,O=C(Oc1ccc(N(CCCl)CCCl)cc1)c1cccc(Br)c1,3.5
19,O=C(Oc1ccc(N(CCCl)CCCl)cc1)c1ccc(Br)cc1,3.5
20,O=C(Oc1ccc(N(CCCl)CCCl)cc1)c1cccc(Cl)c1,3.5
21,O=C(Oc1ccc(N(CCCl)CCCl)cc1)c1cccc(F)c1,3.5
22,O=C(Oc1ccc(N(CCCl)CCCl)cc1)c1ccc(F)cc1,3.5
23,COc1ccc(C(=O)Oc2ccc(N(CCCl)CCCl)cc2)cc1,3.5
24,O=C(Oc1ccc(N(CCCl)CCCl)cc1)c1cccc([N+](=O)[O-])c1,3.5
25,COc1cccc(C(=O)Oc2ccc(N(CCBr)CCBr)cc2)c1,3.5

# Tested on: not listed separately
# Assay: Drug metabolism assessed as log K of Holtzman rat liver esterase-mediated hydrolysis after 5 mins
# Type: ADME, tissue-based
# Conditions: isolated protein
row,SMILES,log K
1,CCN(CC)c1ccc(OC(=O)c2ccc([N+](=O)[O-])cc2)cc1,0.67
2,CCN(CC)c1ccc(OC(=O)c2cccc([N+](=O)[O-])c2)cc1,0.55
3,CCN(CC)c1ccc(OC(=O)c2ccc(C(F)(F)F)cc2)cc1,0.45
4,CCN(CC)c1ccc(OC(=O)c2cccc(C(F)(F)F)c2)cc1,0.34
5,CCN(CC)c1ccc(OC(=O)c2cccc(Cl)c2)cc1,0.32
6,CCN(CC)c1ccc(OC(=O)c2ccc(Cl)cc2)cc1,0.2
7,CCN(CC)c1ccc(OC(=O)c2ccc(C)cc2)cc1,-0.41
8,CCN(CC)c1ccc(OC(=O)c2cccc(C)c2)cc1,0.32
9,CCN(CC)c1ccc(OC(=O)c2ccc(OC)cc2)cc1,-0.49
10,CCN(CC)c1ccc(OC(=O)c2cccc(OC)c2)cc1,0.15
11,CCN(CC)c1ccc(OC(=O)c2ccccc2)cc1,-0.26

# Tested on: W256
# Assay: Antitumor activity against rat Walker 256 cells allografted in rat
# Type: functional
# Conditions: not given
row,SMILES,log1/CED90
1,O=C(Oc1ccc(N(CCBr)CCBr)cc1)c1ccccc1,5.45
2,Cc1ccccc1C(=O)Oc1ccc(N(CCBr)CCBr)cc1,4.96
3,Cc1cccc(C)c1C(=O)Oc1ccc(N(CCBr)CCBr)cc1,3.81
4,CCc1ccccc1C(=O)Oc1ccc(N(CCBr)CCBr)cc1,4.96
5,CC(C)c1ccccc1C(=O)Oc1ccc(N(CCBr)CCBr)cc1,4.39
6,Cc1cccc(C(=O)Oc2ccc(N(CCBr)CCBr)cc2)c1,5.18
7,Cc1ccc(C(=O)Oc2ccc(N(CCBr)CCBr)cc2)cc1,4.94
8,O=C(Oc1ccc(N(CCBr)CCBr)cc1)c1cccc(Cl)c1,4.96
9,O=C(Oc1ccc(N(CCBr)CCBr)cc1)c1ccc(Cl)cc1,4.66
10,COc1ccc(C(=O)Oc2ccc(N(CCBr)CCBr)cc2)cc1,5.12
11,O=C(Oc1ccc(N(CCBr)CCBr)cc1)c1cccc(C(F)(F)F)c1,4.99
12,O=C(Oc1ccc(N(CCBr)CCBr)cc1)c1cccc([N+](=O)[O-])c1,4.67
13,O=C(Oc1ccc(N(CCBr)CCBr)cc1)c1ccc([N+](=O)[O-])cc1,4.86
14,O=C(Oc1ccc(N(CCCl)CCCl)cc1)c1ccccc1,4.86
15,Cc1ccccc1C(=O)Oc1ccc(N(CCCl)CCCl)cc1,4.55
16,Cc1ccc(C(=O)Oc2ccc(N(CCCl)CCCl)cc2)cc1,4.78
17,Cc1cccc(C)c1C(=O)Oc1ccc(N(CCCl)CCCl)cc1,3.31
18,O=C(Oc1ccc(N(CCCl)CCCl)cc1)c1cccc(Br)c1,4.22
19,O=C(Oc1ccc(N(CCCl)CCCl)cc1)c1ccc(Br)cc1,4.84
20,O=C(Oc1ccc(N(CCCl)CCCl)cc1)c1cccc(Cl)c1,4.55
21,O=C(Oc1ccc(N(CCCl)CCCl)cc1)c1cccc(F)c1,4.88
22,O=C(Oc1ccc(N(CCCl)CCCl)cc1)c1ccc(F)cc1,4.9
23,COc1ccc(C(=O)Oc2ccc(N(CCCl)CCCl)cc2)cc1,4.89
24,O=C(Oc1ccc(N(CCCl)CCCl)cc1)c1cccc([N+](=O)[O-])c1,4.81
25,O=C(O)CCCc1ccc(N(CCCl)CCCl)cc1 [CHLORAMBUCIL],5.12

# Species on record: Rattus norvegicus
# Assay: Toxicity in rat allografted with rat Walker 256 cells
# Type: organism-based
# Conditions: not given
row,SMILES,log1/CLD50
1,O=C(Oc1ccc(N(CCBr)CCBr)cc1)c1ccccc1,5.45
2,Cc1ccccc1C(=O)Oc1ccc(N(CCBr)CCBr)cc1,4.96
3,Cc1cccc(C)c1C(=O)Oc1ccc(N(CCBr)CCBr)cc1,3.58
4,CCc1ccccc1C(=O)Oc1ccc(N(CCBr)CCBr)cc1,4.64
5,CC(C)c1ccccc1C(=O)Oc1ccc(N(CCBr)CCBr)cc1,4.66
6,Cc1cccc(C(=O)Oc2ccc(N(CCBr)CCBr)cc2)c1,5.16
7,Cc1ccc(C(=O)Oc2ccc(N(CCBr)CCBr)cc2)cc1,5.32
8,O=C(Oc1ccc(N(CCBr)CCBr)cc1)c1cccc(Cl)c1,5.11
9,O=C(Oc1ccc(N(CCBr)CCBr)cc1)c1ccc(Cl)cc1,5.18
10,COc1ccc(C(=O)Oc2ccc(N(CCBr)CCBr)cc2)cc1,5.21
11,O=C(Oc1ccc(N(CCBr)CCBr)cc1)c1cccc(C(F)(F)F)c1,5.11
12,O=C(Oc1ccc(N(CCBr)CCBr)cc1)c1cccc([N+](=O)[O-])c1,5.07
13,O=C(Oc1ccc(N(CCBr)CCBr)cc1)c1ccc([N+](=O)[O-])cc1,5.37
14,O=C(Oc1ccc(N(CCCl)CCCl)cc1)c1ccccc1,4.06
15,Cc1ccccc1C(=O)Oc1ccc(N(CCCl)CCCl)cc1,3.71
16,Cc1ccc(C(=O)Oc2ccc(N(CCCl)CCCl)cc2)cc1,4.2
17,Cc1cccc(C)c1C(=O)Oc1ccc(N(CCCl)CCCl)cc1,3.1
18,O=C(Oc1ccc(N(CCCl)CCCl)cc1)c1cccc(Br)c1,3.84
19,O=C(Oc1ccc(N(CCCl)CCCl)cc1)c1ccc(Br)cc1,4.19
20,O=C(Oc1ccc(N(CCCl)CCCl)cc1)c1cccc(Cl)c1,3.95
21,O=C(Oc1ccc(N(CCCl)CCCl)cc1)c1cccc(F)c1,4.38
22,O=C(Oc1ccc(N(CCCl)CCCl)cc1)c1ccc(F)cc1,4.21
23,COc1ccc(C(=O)Oc2ccc(N(CCCl)CCCl)cc2)cc1,4.11
24,O=C(Oc1ccc(N(CCCl)CCCl)cc1)c1cccc([N+](=O)[O-])c1,4.4
25,COc1cccc(C(=O)Oc2ccc(N(CCBr)CCBr)cc2)c1,5.25
26,O=C(O)CCCc1ccc(N(CCCl)CCCl)cc1 [CHLORAMBUCIL],4.03

# Tested on: L1210
# Assay: Antitumor activity against mouse L1210 cells assessed as dose required to produce T/C of 125% administered for 15 days
# Type: functional
# Conditions: not given
row,SMILES,log(1/C)
1,CC(=O)Nc1cc(N(CCOS(C)(=O)=O)CCOS(C)(=O)=O)ccc1N=O,6.05
2,CCOC(=O)c1ccc(N(CCOS(C)(=O)=O)CCOS(C)(=O)=O)cc1,4.07
3,CS(=O)(=O)OCCN(CCOS(C)(=O)=O)c1ccccc1,3.97
4,CCOC(=O)CCOc1ccccc1N(CCCl)CCCl,4.67
5,O=C(O)c1ccccc1N(CCO)CCCl,4.94
6,CCC(=O)OCC(Br)CBr (stereo not drawn),5.83
7,CS(=O)(=O)OCCN(CCOS(C)(=O)=O)c1ccc([N+](=O)[O-])c(Cl)c1,3.02
8,Cc1ccc(S(=O)(=O)OCCN(CCOS(=O)(=O)c2ccc(C)cc2)c2cccc(F)c2)cc1,3.31
9,Cc1ccc(S(=O)(=O)OCCN(CCOS(=O)(=O)c2ccc(C)cc2)c2ccccc2)cc1,3.8
10,CS(=O)(=O)OCCN(CCOS(C)(=O)=O)c1cccc(C(F)(F)F)c1,4.42
11,CCOC(=O)c1cc(N(CCOS(C)(=O)=O)CCOS(C)(=O)=O)ccc1N,4.85
12,CS(=O)(=O)OCCN(CCOS(C)(=O)=O)c1ccc(N=O)c(Cl)c1,6.03
13,NC(Cc1ccc(N(CCCl)CCCl)cc1)C(=O)O (stereo not drawn) [SARCOLYSIN],4.94

# Tested on: P388
# Assay: Antitumor activity against mouse P388 cells allografted in mouse assessed as dose required to produce T/C of 125% administered for 9 days
# Type: functional
# Conditions: not given
row,SMILES,log(1/C)
1,ClCCN(CCCl)c1ccc(/N=C/c2ccccc2)cc1,5.33

# Tested on: P388
# Assay: Antitumor activity against mouse P388 cells allografted in mouse assessed as dose required to produce T/C of 125% administered for 10 days
# Type: functional
# Conditions: not given
row,SMILES,log(1/C)
1,NC(Cc1ccc(N(CCCl)CCCl)cc1)C(=O)O (stereo not drawn) [SARCOLYSIN],5.61

# Tested on: P388
# Assay: Antitumor activity against mouse P388 cells allografted in mouse assessed as dose required to produce T/C of 180% administered for 9 days
# Type: functional
# Conditions: not given
row,SMILES,log(1/C)
1,ClCCN(CCCl)c1ccc(/N=C/c2ccccc2)cc1,5

# Tested on: P388
# Assay: Antitumor activity against mouse P388 cells allografted in mouse assessed as dose required to produce T/C of 180% administered for 10 days
# Type: functional
# Conditions: not given
row,SMILES,log(1/C)
1,NC(Cc1ccc(N(CCCl)CCCl)cc1)C(=O)O (stereo not drawn) [SARCOLYSIN],5.18

# Tested on: L1210
# Assay: Antitumor activity against mouse L1210 cells assessed as dose required to produce T/C of 125% administered for 10 days
# Type: functional
# Conditions: not given
row,SMILES,log(1/C)
1,CS(=O)(=O)OCCN(CCOS(C)(=O)=O)c1ccc([N+](=O)[O-])cc1,3.74
2,CS(=O)(=O)OCCN(CCOS(C)(=O)=O)c1cccc([N+](=O)[O-])c1,3.93
3,CCOC(=O)c1cccc(N(CCOS(C)(=O)=O)CCOS(C)(=O)=O)c1,4.63
4,CS(=O)(=O)OCCN(CCOS(C)(=O)=O)c1cccc(Cl)c1,4.85
5,Cc1cc(N(CCOS(C)(=O)=O)CCOS(C)(=O)=O)ccc1N=O,6.4
